Results: patent US20250120989A1, “BRIDGED TRICYCLIC CARBAMOYLPYRIDONE COMPOUNDS AND USES THEREOF” (priority 2023, published 2025)
In brackets after ≈: the same amount, converted by molar mass.

Assays:
HIV-1 (IIIB) = test: microbe, parasite or virus in culture; format: cell-based; conditions: Human immunodeficiency virus 1, MT4, 120 h; HIV-1 (IIIB) replication in MT-4 cells, 5 days, Cell Titer Glo; read-out: MT4 EC50
physchem = conditions: 23 °C, thermodynamic from solid; for solubility thermodynamic at 24 h: FaSSIF
in vitro = conditions: human; for CC50 at 5 days: uninfected MT-4 cells

`CC[C@@H](COC(=O)OCOc1c2n(cc(C(=O)NCc3ccc(F)cc3F)c1=O)[C@@H]1CN(C2=O)[C@@H](C)CC[C@]12CC(C)=NO2)OP(=O)(O)O` [Compound 66, (((3′S,5S,7′R)-10′-((2,4-difluorobenzyl)carbamoyl)-3,3′-dimethyl-1′,11′-dioxo-1′,4′,5′,11′-tetrahydro-3′H,4H,7′H-spiro[isoxazole-5,6′-[2,7]methanopyrido[1,2-a][1,4]diazonin]-12′-yl)oxy)methyl ((S)-2-(phosphonooxy)butyl) carbonate] gave an EC50 (HIV-1 (IIIB)) of 0.00207 µM, a solubility thermodynamic at 24 h (physchem) of 4270 µg/mL (≈ 5.99 mM) and a CC50 at 5 days (in vitro) of 12.8 µM.

`CC1=NO[C@@]2(CC[C@H](C)N3C[C@H]2n2cc(C(=O)NCc4ccc(F)cc4F)c(=O)c(OCOC(=O)OC(C)C(C)(C)OP(=O)(O)O)c2C3=O)C1` (stereo partly drawn) [Compound 56, (((3′S,5S,7′R)-10′-((2,4-difluorobenzyl)carbamoyl)-3,3′-dimethyl-1′,11′-dioxo-1′,4′,5′,11′-tetrahydro-3′H,4H,7′H-spiro[isoxazole-5,6′-[2,7]methanopyrido[1,2-a][1,4]diazonin]-12′-yl)oxy)methyl (3-methyl-3-(phosphonooxy)butan-2-yl) carbonate] gave a solubility thermodynamic at 24 h (physchem) of 4240 µg/mL (≈ 5.84 mM).

With `CC1=NO[C@@]2(CC[C@H](C)N3C[C@H]2n2cc(C(=O)NCc4ccc(F)cc4F)c(=O)c(OCOC(=O)OCCCCOP(=O)(O)O)c2C3=O)C1` [Compound 34, (((3′S,5S,7′R)-10′-((2,4-difluorobenzyl)carbamoyl)-3,3′-dimethyl-1′,11′-dioxo-1′,4′,5′,11′-tetrahydro-3′H,4H,7′H-spiro[isoxazole-5,6′-[2,7]methanopyrido[1,2-a][1,4]diazonin]-12′-yl)oxy)methyl (4-(phosphonooxy)butyl) carbonate] the solubility thermodynamic (physchem; fassif) was 4890 µg/mL (≈ 6.86 mM) and the CC50 (in vitro) was 50 µM.

In the case of `COC1=NO[C@@]2(CC[C@H](C)N3C[C@H]2n2cc(C(=O)NCc4ccc(F)cc4F)c(=O)c(OCOC(=O)O[C@@H](C)COP(=O)(O)O)c2C3=O)C1` [Compound 24, (((3′S,5S,7′R)-10′-((2,4-difluorobenzyl)carbamoyl)-3-methoxy-3′-methyl-1′,11′-dioxo-1′,4′,5′,11′-tetrahydro-3′H,4H,7′H-spiro[isoxazole-5,6′-[2,7]methanopyrido[1,2-a][1,4]diazonin]-12′-yl)oxy)methyl ((S)-1-(phosphonooxy)propan-2-yl) carbonate], the EC50 (HIV-1 (IIIB)) is reported as 0.00229 µM, the solubility thermodynamic at 24 h (physchem) is reported as 5000 µg/mL (≈ 7 mM) and the CC50 at 5 days (in vitro) is reported as 17.1 µM.

`CC1=NO[C@@]2(CC[C@H](C)N3C[C@H]2n2cc(C(=O)NCc4ccc(F)cc4F)c(=O)c(OCOC(=O)O[C@@H](C)COP(=O)(O)O)c2C3=O)C1` [Compound 19, (((3′S,5S,7′R)-10′-((2,4-difluorobenzyl)carbamoyl)-3,3′-dimethyl-1′,11′-dioxo-1′,4′,5′,11′-tetrahydro-3′H,4H,7′H-spiro[isoxazole-5,6′-[2,7]methanopyrido[1,2-a][1,4]diazonin]-12′-yl)oxy)methyl ((S)-1-(phosphonooxy)propan-2-yl) carbonate] showed an EC50 (HIV-1 (IIIB)) of 0.00235 µM, a solubility thermodynamic at 24 h (physchem) of 5060 µg/mL (≈ 7.24 mM) and a CC50 at 5 days (in vitro) of 12.2 µM.

In the case of `COC1=NO[C@@]2(CC[C@H](C)N3C[C@H]2n2cc(C(=O)NCc4ccc(F)cc4F)c(=O)c(OC(=O)OC[C@H](C)OP(=O)(O)O)c2C3=O)C1` [Compound 38, (3′S,5S,7′R)-10′-((2,4-difluorobenzyl)carbamoyl)-3-methoxy-3′-methyl-1′,11′-dioxo-1′,4′,5′,11′-tetrahydro-3′H,4H,7′H-spiro[isoxazole-5,6′-[2,7]methanopyrido[1,2-a][1,4]diazonin]-12′-yl ((S)-2-(phosphonooxy)propyl) carbonate], the EC50 (HIV-1 (IIIB)) is reported as 0.00145 µM, the solubility thermodynamic at 24 h (physchem) is reported as 2460 µg/mL (≈ 3.59 mM) and the CC50 at 5 days (in vitro) is reported as 17.6 µM.

`CC1=NO[C@@]2(CC[C@H](C)N3C[C@H]2n2cc(C(=O)NCc4ccc(F)cc4F)c(=O)c(OCOC(=O)OCC(C)(C)N(C)C(=O)OCOP(=O)(O)O)c2C3=O)C1` [Compound 36, (phosphonooxy)methyl (1-((((((3′S,5S,7′R)-10′-((2,4-difluorobenzyl)carbamoyl)-3,3′-dimethyl-1′,11′-dioxo-1′,4′,5′,11′-tetrahydro-3′H,4H,7′H-spiro[isoxazole-5,6′-[2,7]methanopyrido[1,2-a][1,4]diazonin]-12′-yl)oxy)methoxy)carbonyl)oxy)-2-methylpropan-2-yl)(methyl)carbamate] gave an EC50 (HIV-1 (IIIB)) of 0.00122 µM, a solubility thermodynamic at 24 h (physchem) of 5060 µg/mL (≈ 6.32 mM) and a CC50 at 5 days (in vitro) of 9.33 µM.

`CC1=NO[C@@]2(CC[C@H](C)N3C[C@H]2n2cc(C(=O)NCc4ccc(F)cc4F)c(=O)c(OCOC(=O)N(CCOP(=O)(O)O)CC(=O)O)c2C3=O)C1` [Compound 46, N-(((((3′S,5S,7′R)-10′-((2,4-difluorobenzyl)carbamoyl)-3,3′-dimethyl-1′,11′-dioxo-1′,4′,5′,11′-tetrahydro-3′H,4H,7′H-spiro[isoxazole-5,6′-[2,7]methanopyrido[1,2-a][1,4]diazonin]-12′-yl)oxy)methoxy)carbonyl)-N-(2-(phosphonooxy)ethyl)glycine] gave a solubility thermodynamic at 24 h (physchem) of 4980 µg/mL (≈ 6.72 mM) and a CC50 at 5 days (in vitro) of 50 µM.

Work on `CC1=NO[C@@]2(CC[C@H](C)N3C[C@H]2n2cc(C(=O)NCc4ccc(F)cc4F)c(=O)c(OCOC(=O)OCC[N+](C)(C)C)c2C3=O)C1` [Compound 15, 2-((((((3′S,5S,7′R)-10′-((2,4-difluorobenzyl)carbamoyl)-3,3′-dimethyl-1′,11′-dioxo-1′,4′,5′,11′-tetrahydro-3′H,4H,7′H-spiro[isoxazole-5,6′-[2,7]methanopyrido[1,2-a][1,4]diazonin]-12′-yl)oxy)methoxy)carbonyl)oxy)-N,N,Ntrimethylethan-1-aminium trifluoroacetic acid] yielded a solubility thermodynamic at 24 h (physchem) of 4370 µg/mL and a CC50 at 5 days (in vitro) of 17.3 µM.

Compound `CC1=NO[C@@]2(CC[C@H](C)N3C[C@H]2n2cc(C(=O)NCc4ccc(F)cc4F)c(=O)c(OCOC(=O)OC(C)(C)C(C)OP(=O)(O)O)c2C3=O)C1` (stereo partly drawn) [Compound 55, (((3′S,5S,7′R)-10′-((2,4-difluorobenzyl)carbamoyl)-3,3′-dimethyl-1′,11′-dioxo-1′,4′,5′,11′-tetrahydro-3′H,4H,7′H-spiro[isoxazole-5,6′-[2,7]methanopyrido[1,2-a][1,4]diazonin]-12′-yl)oxy)methyl (2-methyl-3-(phosphonooxy)butan-2-yl) carbonate] has a solubility thermodynamic at 24 h (physchem) of 4600 µg/mL (≈ 6.33 mM).

For `CC1=NO[C@@]2(CC[C@H](C)N3C[C@H]2n2cc(C(=O)NCc4ccc(F)cc4F)c(=O)c(OC(=O)OCC[N+](C)(C)C)c2C3=O)C1` [Compound 16, 2-(((((3′S,5S,7′R)-10′-((2,4-difluorobenzyl)carbamoyl)-3,3′-dimethyl-1′,11′-dioxo-1′,4′,5′,11′-tetrahydro-3′H,4H,7′H-spiro[isoxazole-5,6′-[2,7]methanopyrido[1,2-a][1,4]diazonin]-12′-yl)oxy)carbonyl)oxy)-N,N,N-trimethylethan-1-aminium trifluoroacetic acid], the solubility thermodynamic at 24 h (physchem) was 2230 µg/mL and the CC50 at 5 days (in vitro) was 14.1 µM.
